Assay results: article PMC6155913, “Reaction of 3-Amino-1,2,4-Triazole with Diethyl Phosphite and Triethyl Orthoformate: Acid-Base Properties and Antiosteoporotic Activities of the Products” (Molecules : A Journal of Synthetic Chemistry and Natural …, 2017)
Like-named read-outs stand apart in the source and are kept apart here. Each block holds one compound with its values, some of them ahead of it.

What was measured:
[1] = cited from earlier work
[2] = Protonation constants by potentiometric titration; assay type: physicochemical; settings: Potentiometry, 0.1 M KCl, 25 °C, [L] = 1 × 10^−3 M, error 1σ
Method: (§1) The acid-base properties of compounds 1 and 2 were determined to understand their behaviour in aqueous solutions. These studies were performed using potentiometry prompted by pH-UV titration studies and, for compound 1, pH*-NMR titration studies (pH* = pH uncorrected for the isotopic effect).
The titration studies of the compounds were carried out in double-distilled water using a Metrohm 809 Titrando system equipped with a combined glass electrode (Metrohm 6.0224.100) which was calibrated daily for hydrogen concentration using HCl (Merck, Warsow, Poland) (0.004 M) according to the procedure of Irving et al.. The ionic strength was fixed at I = 0.1 M with KCl (POCh). Alkali, CO2-free 0.1017 M KOH solution (POCh) was standardized by titration with potassium hydrogen phthalate (Merck). The ionic product of water under the experimental conditions was 10^−13.77 mol^2·dm^−6. The purity and exact concentration of each ligand were determined by the method of Gran. The titrations were carried out on 2.0 mL samples in a thermostatted cell at 25 ± 0.2 °C under a stream of Ar. The HYPERQUAD2013 computer program was applied to calculate the protonation constants. Triplicate titrations of each ligand (177–222 points) in a concentration of 1.0 × 10^−3 mol·dm^−3 were performed and used for the calculations. The distribution curves of the protonated species of the compounds (marked as L) as a function of pH were calculated using the HySS2009 program.

[3] = Protonation constants by pH-UV (UV-Vis) titration; assay type: physicochemical; settings: 0.1 M KCl, 25 °C, [L] = 7 × 10^−5 M, error 1σ
Method: as §1
The results of the potentiometric studies are supported by spectroscopic determination of the pK values of the studied compounds. The results, obtained from electronic spectra generated in the HypSpec program for the detected species, are presented in Table 2 and Figure S1. […] For compound 1, the band at approximately 215 nm was already present under a very acidic pH value (pH 1.57) (Figure 4). This band is assigned to the protonated 1,2,4-triazole. The band underwent a bathochromic shift to 230 nm when the pH rises, which is assigned to the H4L → H3L^− + H^+ deprotonation process at a pK4 of 4.22 or 4.16 (estimated potentiometrically or spectrophotometrically, respectively). This was the biggest change in absorption for the spectroscopic determination by UV spectrophotometry. This change was the reason for assigning the pK4 value to the deprotonation of 1,2,4-triazole. Adequate changes occur for the spectra of compound 2. […] Generally, spectroscopic titrations (see Figure S23 Supplementary Materials) are in a good agreement with potentiometric titrations and provide similar pK values.
Absorption spectra for the compounds were collected using a Varian Cary 50 spectrophotometer (Varian, Mulgrave, Victoria, Australia) in Quartz Hellma curvets with a 1 cm optical path. The solutions were prepared by dissolving the appropriate concentration of ligands ([L] = 7 × 10^−5 mol·dm^−3) in 0.004 M HCl with 0.1 M ionic strength (KCl). The background electrolyte was used as a baseline reference. Solution pH was changed manually by adding small amounts of concentrated potassium hydroxide and checked the pH using the 913 Metrohm pH meter equipped with a combined glass electrode (Metrohm 6.0224.100, Herisau, Switzerland). The protonation constants and spectral deconvolution were refined using the least squares fitting program HypSpec. Factor analysis by the HypSpec software (http://www.hyperquad.co.uk/) was implemented to characterize the number of species present in the solution.

[4] = tested on: mouse macrophage-like J774E cells; experiment: Antiproliferative activity, MTT assay; assay type: cell-based; settings: J774E macrophages, 72 h exposure
Method: To screen for potential antiosteoporotic activity of the bisphosphonates, their antiproliferative activity towards in vitro cell cultures was determined. J774E macrophages and osteoclasts are both derived from haematopoietic lineage and are highly endocytic and capable of demineralizing bone particles. Therefore, they are models for studies on the influence of bisphosphonates on the proliferation and activity of […]. For this purpose, mouse macrophage-like J774E cells, originating from the same precursors as the osteoclasts, were used. Such cells are well recognized for being sensitive to bisphosphonates, which likely act by inducing apoptosis in the cells. The J744E cell line was obtained from a cell bank at the Ludwik Hirszfeld Institute of Immunology and Experimental Therapy, Polish Academy of Sciences.
This experiment was performed according to a previously published procedure. To use the cell line, it is necessary to first thaw the cells using a water bath at 37 °C and gentle stirring. The cells were placed into the culture medium. This line was passaged 2 times a week in RPMI (growth medium consisting of 10% FBS, 100 μg/mL streptomycin, 100 U/mL penicillin and 2 mM glutamine) in Petri dishes. The cell growth was monitored under a microscope, and part of the material was used in the next stage of the experiment. Then, the cells were separated from the bottom (the surface proteins present on the plasma membrane allowing adhesion were destroyed) and were collected from the culture vessel. Then, in a Bürker chamber, the cell density was counted using a drop of cell suspension in a mixture ratio of 1:1 with trypan blue.
Then, a 96-well microtiter plate assay was performed with 100 μL of cells (5 × 10^4/mL) in a cultivation solution followed, after 24 h, by the addition of 100 μL of a solution of the tested compound (10^−3, 10^−4, 10^−5, or 10^−6 M) in the same medium. Plates were incubated at 37 °C in a humidified atmosphere saturated with 5% CO2. The in vitro cytotoxicities of all agents were examined by colorimetric MTT assay after 72 h of exposure of the cultured cells to varying concentrations of the tested compounds [32]. Briefly, 20 μL of the MTT solution (MTT: 3-(4,5-dimethylthiazol-2-yl)-2,5-diphenyl tetrazolium bromide) was added to each well and incubated for 4 h. After the incubation period was completed, 80 μL of the lysing mixture was added to each well (lysing mixture: 225 mL dimethylformamide, 67.5 g sodium dodecyl sulfate and 275 mL of distilled water). The optical densities of the samples were determined after 24 h using a Multiskan RC photometer (Labsystems, Helsinki, Finland) at 570 nm.

Compound: c1c[nH]nn1 [1,2,3-triazole]
- pK of triazole ([1]; unsubstituted triazole): 9.26

Compound: c1nc[nH]n1 [1,2,4-triazole]
- pK of triazole ([1]; unsubstituted triazole): 9.95

Compound: OCCCn1cc(-c2ccccn2)nn1 [3-(4-(pyridine-2-yl)-1H-1,2,3-triazol-1-yl-propan-1-ol]
- pK of triazole ([1]; 1,2,3-triazole-pyridines, previously reported): 3.40

Compound: Nc1nc[nH]n1 [3-amino-1,2,4-triazole]
- pK of triazole ([1]; substituted triazole, previously reported): 4.20

- pK1(HL) amine [2]: 11.52(3)
- pK2(H2L) phosphonate [2]: 9.62(3)
- pK3(H3L) phosphonate [2]: 6.54(4)
- pK5(H5L) phosphonate [2]: 1.48(4)
- pK2(H2L) phosphonate ([2]; listed as compound 1): 9.62
- pK3(H3L) phosphonate ([2]; listed as compound 1): 6.54
- pK4(H4L) triazole ([2]; listed as compound 1): 4.22
- pK5(H5L) phosphonate ([2]; listed as compound 1): 1.48
- pK1(HL) amine [3]: 11.68(2)
- pK2(H2L) phosphonate [3]: 9.32(5)
- pK3(H3L) phosphonate [3]: 6.15(6)
- pK4(H4L) triazole [3]: 4.16(6)
- pK5(H5L) phosphonate [3]: 0.67(6)
- pK4(H4L) triazole ([3]; listed as compound 1): 4.16
Compound: O=P(O)(O)C(Nc1nc[nH]n1)P(=O)(O)O [Compound 1, 1,2,4-Triazolyl-3-yl-Aminomethylenebisphosphonic Acid]
- IC50 [4]: 25 µM
- IC50 ([4]; Mus musculus, Macrophage, 72 h): 24.9 ± 5.17 µM

- pK1(HL) amine [2]: 10.81(1)
- pK2(H2L) phosphonate [2]: 9.43(1)
- pK3(H3L) phosphonate [2]: 6.73(1)
- pK5(H5L) phosphonate [2]: 1.69(1)
- pK2(H2L) phosphonate [3]: 9.56(2)
- pK3(H3L) phosphonate [3]: 5.90(2)
- pK4(H4L) triazole [3]: 3.32(2)
- pK4(H4L) triazole ([3]; listed as compound 2): 3.32
Compound: CCn1cnc(NC(P(=O)(O)O)P(=O)(O)O)n1 [Compound 2]
- IC50 ([4]; Mus musculus, Macrophage, 72 h): 30.6 ± 4.64 µM

Compound: O=P(O)(O)C(NC1CCCCCC1)P(=O)(O)O [incadronic acid, reference compound]
- IC50 ([4]; Mus musculus, Macrophage, 72 h): 47.9 ± 1.39 µM

Compound: O=P(O)(O)C(O)(Cn1ccnc1)P(=O)(O)O [zoledronic acid, reference compound]
- IC50 ([4]; Mus musculus, Macrophage, 72 h): 24.5 ± 2.23 µM
